This passage reports IC50 and Stability results from ChEMBL document CHEMBL1140104, “Chlorogenic acid derivatives with alkyl chains of different lengths and orientations: potent alpha-glucosidase inhibitors” (J Med Chem, 2008).

Structures can show the parent of a compound that is named as a salt.

Data set [1] can be described thus: Inhibition of Bacillus stearothermophilus alpha-glucosidase. On the set-up: species or system Geobacillus stearothermophilus.
Data set [2] in a line: Inhibition of Saccharomyces cerevisiae alpha-glucosidase.
A short description of data set [3]: Stability in artificial gastric juice at 10 mM after 48 hrs. Particulars: simulated gi fluid, 10000 µM. Format: physicochemical.
Data set [4] in a line: Stability in artificial intestinal juice at 10 mM after 12 hrs. Format: physicochemical. Particulars: simulated gi fluid, 10000 µM.

The IC50 is the concentration at which inhibition is half-maximal. Read a high IC50 as weaker potency in that assay. On to `CCCCCCCC[C@@H]1OC(=O)[C@]2(C[C@@H](OC(=O)/C=C/c3ccc(O)c(O)c3)[C@@H]3O[C@H](CCCCCCCC)O[C@@H]3C2)O1`, for which the IC50 in data set [1] turned out to be 2 µM; in data set [2], 1 µM.

For the molecule `CCCCCCCC[C@@H]1O[C@H]2[C@H](OC(=O)/C=C/c3ccc(O)c(O)c3)C[C@]3(C[C@H]2O1)O[C@H](CCCCCCCC)OC3=O`, the IC50 stood at 1.8 µM in data set [1] and 0.8 µM in data set [2].

Consider `CCCCCCCCC1(CCCCCCCC)OC(=O)[C@@]2(C[C@@H](O)[C@@H](O)[C@H](OC(=O)/C=C/c3ccc(O)c(O)c3)C2)O1`, for which the results for the IC50 in data set [1] and in data set [2] were 5.1 µM and 3 µM, respectively.

As for `CC1(C)O[C@H]2[C@H](OC(=O)/C=C/c3ccc(O)c(O)c3)C[C@]3(C[C@H]2O1)OC(C)(C)OC3=O`, the IC50 was found to be 154 µM in data set [1] and 391 µM in data set [2].

`CCCCCC1(CCCCC)OC(=O)[C@@]2(C[C@@H](O)[C@@H](O)[C@H](OC(=O)/C=C/c3ccc(O)c(O)c3)C2)O1`: the values for the IC50 in data set [1] and in data set [2] were 14.2 µM and 3.6 µM, respectively.

`CCCCCCC1(CCCCCC)OC(=O)[C@@]2(C[C@@H](O)[C@@H](O)[C@H](OC(=O)/C=C/c3ccc(O)c(O)c3)C2)O1`: the IC50 stood at 3.9 µM in data set [1] and 3.4 µM in data set [2].

For the molecule `CCCCCCCC[C@@H]1OC(=O)[C@@]2(C[C@@H](O)[C@@H](O)[C@H](OC(=O)/C=C/c3ccc(O)c(O)c3)C2)O1`, the results for the IC50 in data set [1] and in data set [2] were 10.9 µM and 3.3 µM, respectively.

As to `CC1(C)OC(=O)[C@@]2(C[C@@H](O)[C@@H](O)[C@H](OC(=O)/C=C/c3ccc(O)c(O)c3)C2)O1`, the figures for the IC50 in data set [1] and in data set [2] were 2540 µM and 114 µM, respectively.

Take `CCC1(CC)O[C@H]2[C@H](OC(=O)/C=C/c3ccc(O)c(O)c3)C[C@]3(C[C@H]2O1)OC(CC)(CC)OC3=O`: the results for the IC50 in data set [1] and in data set [2] were 44.9 µM and 26.5 µM, respectively.

Turning to `CCCCC1(CCCC)OC(=O)[C@@]2(C[C@@H](O)[C@@H](O)[C@H](OC(=O)/C=C/c3ccc(O)c(O)c3)C2)O1`, the IC50 came to 14.4 µM in data set [1] and 3.4 µM in data set [2].

Regarding `CCCCCCCC[C@H]1OC(=O)[C@@]2(C[C@@H](O)[C@@H](O)[C@H](OC(=O)/C=C/c3ccc(O)c(O)c3)C2)O1`, the IC50 stood at 12.5 µM in data set [1] and 3.6 µM in data set [2].

Turning to `CC1(C)OC2Cc3c(O)cc(O)cc3O[C@@H]2c2cc(O)c(O)cc21` (some centres undefined), the IC50 was found to be 29.6 µM in data set [1] and 18.5 µM in data set [2].

Consider `CCCCCCCC1(CCCCCCC)OC(=O)[C@@]2(C[C@@H](O)[C@@H](O)[C@H](OC(=O)/C=C/c3ccc(O)c(O)c3)C2)O1`, for which the IC50 in data set [1] was 3.6 µM; in data set [2], 4.3 µM.

`CCCCCCCC[C@H]1O[C@H]2[C@H](OC(=O)/C=C/c3ccc(O)c(O)c3)C[C@]3(C[C@H]2O1)O[C@@H](CCCCCCCC)OC3=O`: the IC50 in data set [1] amounted to 0.8 µM; in data set [2], 0.3 µM.

For the molecule `CCCCCCC1(CCCCCC)O[C@H]2[C@H](OC(=O)/C=C/c3ccc(O)c(O)c3)C[C@]3(C[C@H]2O1)OC(CCCCCC)(CCCCCC)OC3=O`, the half-inhibitory concentration (IC50) in data set [1] was 0.8 µM; in data set [2], 0.5 µM.

Turning to `CCCCCCCC1(CCCCCCC)O[C@H]2[C@H](OC(=O)/C=C/c3ccc(O)c(O)c3)C[C@]3(C[C@H]2O1)OC(CCCCCCC)(CCCCCCC)OC3=O`, the figures for the IC50 in data set [1] and in data set [2] were 0.9 µM and 0.4 µM, respectively.

For `CCCCCCCCC1(CCCCCCCC)O[C@H]2[C@H](OC(=O)/C=C/c3ccc(O)c(O)c3)C[C@]3(C[C@H]2O1)OC(CCCCCCCC)(CCCCCCCC)OC3=O`, the half-maximal inhibitory concentration (IC50) in data set [1] turned out to be 0.9 µM; in data set [2] it was 0.5 µM.

On to `CCCCCC1(CCCCC)O[C@H]2[C@H](OC(=O)/C=C/c3ccc(O)c(O)c3)C[C@]3(C[C@H]2O1)OC(CCCCC)(CCCCC)OC3=O`, for which the IC50 in data set [1] was determined as 1.1 µM; in data set [2], 0.8 µM.

In the case of `CCCCC1(CCCC)O[C@H]2[C@H](OC(=O)/C=C/c3ccc(O)c(O)c3)C[C@]3(C[C@H]2O1)OC(CCCC)(CCCC)OC3=O`, the IC50 in data set [1] stood at 0.8 µM; in data set [2], 0.3 µM.

For `CCCCCCCC[C@@H]1O[C@H]2[C@H](OC(=O)/C=C/c3ccc(O)c(O)c3)C[C@]3(C[C@H]2O1)O[C@@H](CCCCCCCC)OC3=O`, the IC50 amounted to 0.7 µM in data set [1] and 0.3 µM in data set [2]. The Stability entry in data set [3] and in data set [4] was “Stable” throughout.

Turning to `CCCC1(CCC)O[C@H]2[C@H](OC(=O)/C=C/c3ccc(O)c(O)c3)C[C@]3(C[C@H]2O1)OC(CCC)(CCC)OC3=O`, the IC50 in data set [1] was determined as 5.5 µM; in data set [2] it was 3.3 µM.

As for `CCCC1(CCC)OC(=O)[C@@]2(C[C@@H](O)[C@@H](O)[C@H](OC(=O)/C=C/c3ccc(O)c(O)c3)C2)O1`, the IC50 in data set [1] came to 62.2 µM; in data set [2], 19.4 µM.

As for `CCC1(CC)OC(=O)[C@@]2(C[C@@H](O)[C@@H](O)[C@H](OC(=O)/C=C/c3ccc(O)c(O)c3)C2)O1`, the results for the IC50 in data set [1] and in data set [2] were 128 µM and 71.1 µM, respectively.

As to `C[C@H]1O[C@H](O[C@H]2[C@H](O)[C@@H](O)[C@@H](O[C@H]3[C@H](O)[C@@H](O)C(O)O[C@@H]3CO)O[C@@H]2CO)[C@H](O)[C@@H](O)[C@@H]1N[C@H]1C=C(CO)[C@@H](O)[C@H](O)[C@H]1O` (some centres undefined) [ACARBOSE], the IC50 in data set [1] and in data set [2] was 0.1 µM throughout.

As to `O=C(/C=C/c1ccc(O)c(O)c1)O[C@@H]1C[C@](O)(C(=O)O)C[C@@H](O)[C@H]1O` [CHLOROGENIC ACID], the IC50 was 2820 µM in data set [1] and > 2820 µM in data set [2].

`OC[C@H]1NC[C@H](O)[C@@H](O)[C@@H]1O` [DUVOGLUSTAT HYDROCHLORIDE]: the IC50 in data set [1] was found to be 2.4 µM; in data set [2] it was 1.8 µM.
